Values of other authors, collected in PMC3350394, “Kinetic analysis and test-retest variability of the radioligand [^11C](R)-PK11195 binding to TSPO in the human brain - a PET study in control subjects” (EJNMMI Research, 2012).

How the values were obtained:
[1] = biological target: dopamine D2/3 receptor; design: method as in PMID 2528555, PMID 8122313; conditions: approximately; read-out: affinity; cited from earlier work
[2] = design: method as in PMID 2528555; conditions: cited from earlier work
[3] = design: method as in PMID 2528555; conditions: cited from earlier work; remark: listed apart in the source
[4] = same experimental setting and analytical approach; cited from earlier work
[5] = test system: TSPO; design: method as in PMID 19948230; conditions: up; cited from earlier work
[6] = test system: TSPO; design: method as in PMID 15103694; conditions: unlabelled displacer; cited from earlier work
[7] = test system: alfa1-acid glycoprotein (AGP); design: method as in PMID 12623120; conditions: cited from earlier work
[8] = test system: human serum albumin (HSA); design: method as in PMID 12623120; conditions: relative to AGP; cited from earlier work

In the case of `CCN1CCC[C@H]1CNC(=O)c1c(O)c(Cl)cc(Cl)c1OC` (racemic) [[^11C]raclopride], the Kd [1] is listed as 1 to 3 nM.

In the case of `CCN1CCC[C@H]1CNC(=O)c1c(O)c(Cl)cc(Cl)c1O[11CH3]` (racemic) [[^11C]raclopride], the first pass extraction [2] is listed as “about 20%”, the plasma protein binding [3] is listed as 96% and the K1 [4] is listed as 0.16.

For `COc1ccccc1CN(C(C)=O)c1cnccc1Oc1ccccc1` [PBR28], the “displacement of [11C](R)-PK11195 binding” value [5] is given as 40% to 60.

For `CCC(C)N(C)C(=O)c1cc2ccccc2c(-c2ccccc2Cl)n1` (stereo not drawn) [PK11195, 1-(2-chlorophenyl)-N-methyl-N-(1-methylpropyl)-3-isoquinoline carboxamide], the “displacement of the total [11C]DAA1106 binding” value [6] is listed as “about 70%”.

In the case of `CCC(C)N(C)C(=O)c1cc2ccccc2c(-c2ccccc2Cl)n1` (stereo not drawn) [[^3 H]PK11195, 1-(2-chlorophenyl)-N-methyl-N-(1-methylpropyl)-3-isoquinoline carboxamide], the “binding to AGP” value [7] is listed as “high affinity” and the “binding to HSA” value [8] is listed as “to a lesser extent”.

In the case of `CCN1CCC[C@H]1CNC(=O)c1cc(Br)cc(OC)c1O[11CH3]` [[^11C]FLB-457], the K1 [4] is listed as 0.42.
